# Legend:
# [1] = test system: small colony diphtheroids; conditions: human stratum corneum blended in physiological saline; U.S. Patent No. 4,518,517; cited from earlier work
# [2] = test system: adherence of aerobic diphtheroids to undifferentiated HE cells; assay: Inhibition of bacterial adherence to undifferentiated human epithelial cells; assay type: cell-based; conditions: 17 mg/ml final concentration
# Description: Skin microorganisms were isolated from the axillae of ten healthy human volunteers (male and female). Corynebacterium diphtheriae, Corynebacterium group J-K, and Escherichia coli 1677 were also obtained. The latter bacteria were included as controls for the adherence experiments. Microorganisms were maintained either by subculture on blood agar plates or trypticase soy agar base with 5% defibrinated sheep's blood. Stock cultures were frozen at -20°C in semi-solid trypticase soy agar for aerobes and chopped meat carbohydrate broth for anaerobes. For in vitro adherence assays the lipophilic corynebacteria were serially subcultured three times for periods of 24 hrs. in tryptose broth with 0.5% Tween-80.
# Isolation of microorganisms from the axillae was performed by addition of 1 ml of a 0.1% Triton X-100 solution onto a sterile glass cylinder placed firmly on the skin in the axilla (total area 3.8cm²). […]
# Human epithelial (HE) cells (primary culture from normal human epidermal keratinocytes) were used to assess the adherence of the axillary microorganisms. […] Differentiation of HE cells was induced by addition of calcium chloride (CaCl₂) to a concentration of 2 mM/L. Differentiation was assessed by mound formation (3 to 5 layers of cells) during tissue culture and by a modified Ayoub-Shklar's stain for differentiated epithelial cells. […]
# [3] = test system: adherence of aerobic diphtheroids to differentiated HE cells; assay: Inhibition of bacterial adherence to differentiated human epithelial cells; assay type: cell-based; conditions: for inhibition of attachment of aerobic skin bacteria to differentiated HE cells (in words) / inhibition at 17000 µg/mL: 17 mg/ml final concentration; for inhibition at 17000 µg/mL: Homo sapiens, Epithelial cell
SMILES,effect on diphtheroid bacterial attachment to the skin sample (in words) [1],further results
OC[C@H]1O[C@H](OC[C@H]2O[C@H](O[C@]3(CO)O[C@H](CO)[C@@H](O)[C@@H]3O)[C@H](O)[C@@H](O)[C@@H]2O)[C@H](O)[C@@H](O)[C@H]1O [raffinose],a greater amount of bacteria attached to the skin than one treated with mannose,–
"CC(=O)N[C@H]1C(O)O[C@H](CO)[C@@H](O)[C@@H]1O (stereo partly drawn) [NAGA, N-acetyl-D-glucosamine]",neither galactose nor N-acetyl glucosamine had an effect,inhibition of attachment of aerobic skin bacteria to undifferentiated HE cells (in words) [2]: consistently able to inhibit attachment; inhibition of attachment of aerobic skin bacteria to differentiated HE cells (in words) [3]: consistently able to inhibit attachment
C[C@H](O)[C@H](O)[C@@H](O)[C@@H](O)C=O [rhamnose],a greater amount of bacteria attached to the skin than one treated with mannose,–
OC[C@H]1O[C@@H](O[C@H]2[C@H](O)[C@@H](O)C(O)O[C@@H]2CO)[C@H](O)[C@@H](O)[C@H]1O (stereo partly drawn) [lactose],a greater amount of bacteria attached to the skin than one treated with mannose,–
O=C(CO)[C@@H](O)[C@H](O)[C@H](O)CO [fructose],a greater amount of bacteria attached to the skin than one treated with mannose,–
"OC[C@H]1O[C@@](CO)(O[C@H]2O[C@H](CO)[C@@H](O)[C@H](O)[C@H]2O)[C@@H](O)[C@@H]1O [Sucrose, sucrose, reference compound]",a greater amount of bacteria attached to the skin than one treated with mannose,inhibition at 17000 µg/mL [3]: -12.8 to 22.6%
OC[C@H]1O[C@H](O[C@H]2[C@H](O)[C@@H](O)[C@H](O)O[C@@H]2CO)[C@H](O)[C@@H](O)[C@@H]1O [maltose],a greater amount of bacteria attached to the skin than one treated with mannose,–
"O=C[C@H](O)[C@@H](O)[C@@H](O)[C@H](O)CO [galactose, D(+) galactose]",neither galactose nor N-acetyl glucosamine had an effect,inhibition of attachment to differentiated epithelial cells (in words) [3]: poor capacity to inhibit attachment; inhibition at 17000 µg/mL [3]: 70 to 90%
"C[C@@H](O)[C@H](O)[C@H](O)[C@@H](O)C=O [fucose, D(+) fucose]",–,inhibition of attachment of aerobic skin bacteria to undifferentiated HE cells (in words) [2]: consistently able to inhibit attachment; inhibition of attachment of aerobic skin bacteria to differentiated HE cells (in words) [3]: consistently able to inhibit attachment

# — EP0561489A2, “Deodorant compositions containing materials for inhibiting bacterial adherence, method of use thereof, and method for determining materials that inhibit bacterial adherence” (THE MENNEN COMPANY, priority 1992, dated 1993)
